Reference: ChEMBL document CHEMBL1201862, “PubChem BioAssay data set” (2004)
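Step 1: Grow cells in 96-well plates. Step 2: Expose to compound for 48 hours at 5 concentrations. Step 3: Interpolate endpoints linearly; if unreached, use highest concentration. GI50 = concentration required for 50% inhibition of growth.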 Activity calls are given as the source filed them. No stated cut-off is given here; in the data, active = GI50 up to about 1.1 µM and inactive = higher.

Assays:
Assay in all cases: DTP human tumour cell line panel, 48 h
[1] = test system: MCF7
[2] = test system: MDA-N
[3] = test system: SF-295
[4] = test system: HT-29
[5] = test system: CAKI-1
[6] = test system: A549
[7] = test system: U-251
[8] = test system: HCT-116
[9] = test system: OVCAR-5
[10] = test system: T47D
[11] = test system: NCI/ADR-RES
[12] = test system: SN12C
[13] = test system: ACHN
[14] = test system: CCRF-CEM
[15] = test system: Hs-578T
[16] = test system: NCI-H226
[17] = test system: 786-0
[18] = test system: NCI-H460
[19] = test system: NCI-H522
[20] = test system: EKVX
[21] = test system: A498
[22] = test system: SK-MEL-28
[23] = test system: HCC 2998
[24] = test system: RPMI-8226
[25] = test system: MDA-MB-435
[26] = test system: UACC-257
[27] = test system: SNB-19
[28] = test system: DU-145
[29] = test system: COLO 205
[30] = test system: MOLT-4
[31] = test system: SW-620
[32] = test system: BT-549
[33] = test system: NCI-H23
[34] = test system: M14
[35] = test system: OVCAR-3
[36] = test system: MDA-MB-231
[37] = test system: SF-268
[38] = test system: IGROV-1
[39] = test system: TK-10
[40] = test system: SK-OV-3
[41] = test system: SNB-75
[42] = test system: SK-MEL-5
[43] = test system: OVCAR-8
[44] = test system: Malme-3M
[45] = test system: HCT-15
[46] = test system: OVCAR-4
[47] = test system: UACC-62
[48] = test system: PC-3
[49] = test system: UO-31
[50] = test system: KM12
[51] = test system: HL-60
[52] = test system: HOP-62
[53] = test system: SK-MEL-2

CC(C)=CCC[C@]1(C)CC[C@]2(C)C3CCC(=C(C)C)[C@@H](CCCO)[C@]3(C)CC[C@@]2(C)C1 (stereo partly drawn)
GI50 [1]: 24 µM (inactive)
GI50 [2]: 89.3 µM (inactive)
GI50 [3]: 43.1 µM (inactive)
GI50 [4]: 40.2 µM (inactive)
GI50 [5]: 95.7 µM (inactive)
GI50 [6]: 52.6 µM (inactive)
GI50 [7]: 23.6 µM (inactive)
GI50 [8]: 36.7 µM (inactive)
GI50 [9]: 59.4 µM (inactive)
GI50 [10]: 4.92 µM (inactive)
GI50 [11]: > 100 µM (inactive)
GI50 [12]: 54.5 µM (inactive)
GI50 [13]: 83 µM (inactive)
GI50 [14]: 36.9 µM (inactive)
GI50 [15]: > 100 µM (inactive)
GI50 [16]: > 100 µM (inactive)
GI50 [17]: 32.4 µM (inactive)
GI50 [18]: 54.1 µM (inactive)
GI50 [19]: 17.8 µM (inactive)
GI50 [20]: 46.5 µM (inactive)
GI50 [21]: > 100 µM (inactive)
GI50 [22]: > 100 µM (inactive)
GI50 [23]: 25.5 µM (inactive)
GI50 [24]: 26.5 µM (inactive)
GI50 [25]: > 100 µM (inactive)
GI50 [26]: 24 µM (inactive)
GI50 [27]: > 100 µM (inactive)
GI50 [28]: 34 µM (inactive)
GI50 [29]: > 100 µM (inactive)
GI50 [30]: 39.2 µM (inactive)
GI50 [31]: 53.8 µM (inactive)
GI50 [32]: > 100 µM (inactive)
GI50 [33]: 84.9 µM (inactive)
GI50 [34]: 30.3 µM (inactive)
GI50 [35]: 47.1 µM (inactive)
GI50 [36]: 29.8 µM (inactive)
GI50 [37]: 82 µM (inactive)
GI50 [38]: 18.8 µM (inactive)
GI50 [39]: 20.2 µM (inactive)
GI50 [40]: > 100 µM (inactive)
GI50 [41]: 0.0243 µM (active)
GI50 [42]: > 100 µM (inactive)
GI50 [43]: 30.5 µM (inactive)
GI50 [44]: > 100 µM (inactive)
GI50 [45]: 34 µM
GI50 [46]: > 100 µM (inactive)
GI50 [47]: > 100 µM (inactive)
GI50 [48]: 35.1 µM (inactive)
GI50 [49]: 16.9 µM (inactive)
GI50 [50]: 57.9 µM (inactive)
GI50 [51]: 33.8 µM (inactive)
GI50 [52]: 88.5 µM (inactive)
GI50 [53]: 18.8 µM (inactive)
